Assay [1] addresses T1, wild type PKR (Homo sapiens, UniProt P30613). Briefly: PKR (wild type) enzyme AC50 assay, LDH/NADH-coupled, absorbance at 340 nm. Conditions: Table 4, AC50, enzyme assay; for EC50: read-out: PKR WT. In kind it is biochemical. The method in brief:
(§1)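 Human PKR, wild type or K410E/R510Q mutant (40-400 ng/well), preincubated 60 min at room temperature with compound (11-point 3-fold series from 100 μM, 1% DMSO) in Tris pH 7.5/KCl/MgCl2 buffer with PEP 0.1-0.5 mM, 180 μM NADH, LDH. ADP (0.2-1.65 mM) started the reaction; LDH-coupled NADH consumption followed at 340 nm.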

Assay [2] deals with PKR K410E (Homo sapiens, UniProt P30613, K410E). Briefly: PKR mutant assay (K410E), AC50, LDH/NADH-coupled, absorbance at 340 nm. In kind it is biochemical. To be noted: Table 4; AC50, enzyme assay. The method in brief:
as §1

Assay [3] deals with PKR R510Q (Homo sapiens, UniProt P30613, R510Q). Briefly: PKR mutant assay (R510Q), AC50, LDH/NADH-coupled, absorbance at 340 nm. In kind it is biochemical. Conditions: Table 4, AC50, enzyme assay; for EC50: read-out: PK R510Q. Summed up: as §1
Assay [4] concerns the target T1, wild type PKR. Briefly: Cell based ATP assay in purified red blood cells (Cell-Titer-Glo). On the set-up: endogenous in cells; host or cells: purified red blood cells from healthy volunteers. Conditions: Table 4; AC50, RBCs, overnight at 37° C., ATP levels. The method in brief: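 RBCs from healthy human donors' K2EDTA blood were leukocyte-depleted by filtration and resuspended in AGAM (PBS, 1% glucose, adenine, mannitol). Cells at 1×10^7 cells/mL were incubated overnight at 37 °C with serially diluted compound at 0.1% DMSO, and ATP was read by Cell-Titer-Glo luminescence.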

Sequence of PKR K410E (P30613 whole entry K410E): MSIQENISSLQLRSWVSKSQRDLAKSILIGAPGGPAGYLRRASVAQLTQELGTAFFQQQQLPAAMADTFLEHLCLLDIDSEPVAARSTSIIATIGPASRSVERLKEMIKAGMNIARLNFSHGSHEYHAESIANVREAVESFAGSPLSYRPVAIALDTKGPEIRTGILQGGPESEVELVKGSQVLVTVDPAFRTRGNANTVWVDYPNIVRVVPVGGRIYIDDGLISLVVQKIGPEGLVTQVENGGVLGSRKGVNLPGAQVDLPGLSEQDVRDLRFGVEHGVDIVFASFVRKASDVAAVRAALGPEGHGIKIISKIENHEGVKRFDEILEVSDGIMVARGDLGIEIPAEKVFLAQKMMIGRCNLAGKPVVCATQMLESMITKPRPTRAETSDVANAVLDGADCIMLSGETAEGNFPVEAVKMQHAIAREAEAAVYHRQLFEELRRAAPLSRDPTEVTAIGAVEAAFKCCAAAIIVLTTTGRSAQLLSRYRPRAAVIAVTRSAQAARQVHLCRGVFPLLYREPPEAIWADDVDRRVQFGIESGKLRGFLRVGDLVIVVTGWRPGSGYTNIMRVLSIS
T1 sequence (P30613 whole entry): as the sequence (P30613 whole entry K410E) above, with E410K counted along it
Sequence of PKR R510Q (P30613 whole entry R510Q): as the sequence (P30613 whole entry K410E) above, with E410K, R510Q counted along it

For the compound `O=c1c2c(cnn1Cc1ccccc1)c1sc(Cc3cc[nH]n3)nc1n2Cc1ccccc1` [Compound 407], the “PKR WT” value in assay [1] is given as “No Fit”. The EC50 was over 800 nM in assay [2] and under 300 nM in assay [3]. For the same compound, the “Cell based ATP assay” value in assay [4] is given as “No Fit”.
As for `O=c1c2c(cnn1Cc1ccccc1)c1sc(Cc3cc[nH]n3)nc1n2C1CC1` [Compound 408], the EC50 in assay [1] is over 800 nM; in assay [2], over 800 nM; in assay [3] it was 301 to 800 nM; in assay [4], over 1000 nM.
For the compound `CSc1nc2c(s1)c1cnn(Cc3ccccc3)c(=O)c1n2-c1nccs1` [Compound 409], the EC50 in assay [1] was over 800 nM. For the same compound, the “PKR K410E” value in assay [2] was “No Fit”. For the same compound, the “PK R510Q” value in assay [3] is “No Fit”. Moreover, the “Cell based ATP assay” value in assay [4] is listed as “No Fit”.
Regarding `CS(=O)(=O)c1nc2c(s1)c1cnn(Cc3ccccc3)c(=O)c1n2-c1nccs1` [Compound 410], the “PKR WT” value in assay [1] was “No Fit”. Moreover, the EC50 in assay [2] was over 800 nM; in assay [4], over 1000 nM. Further, in assay [3], the “PK R510Q” value is reported as “No Fit”.
In the case of `O=c1c2c(cnn1Cc1ccccc1)c1sc(Cc3ccccn3)nc1n2-c1nccs1` [Compound 411], the EC50 in assay [1], in assay [2] and in assay [3] was over 800 nM each time. Also, in assay [4], the “Cell based ATP assay” value is “No Fit”.

The values are drawn from patent US11957680B2, “Pyruvate kinase activators for use in treating blood disorders” (Agios Pharmaceuticals, Inc., priority 2017, dated 2024).
